According to the supplement of paper PMC10307832:

Legend:
Assay in all cases: relative viability (nuclei count vs DMSO), 5 days (fraction); higher = more cells survive
Selisistat + Bortezomib = compound: C1CC(C2=C(C1)C3=C(N2)C=CC(=C3)Cl)C(=O)N [Selisistat] + CC(C)C[C@H](NC(=O)[C@H](Cc1ccccc1)NC(=O)c1cnccn1)B(O)O [Bortezomib] (partner 0.002 µM)
In short: (§1)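 Lung cancer cell lines in 1536-well plates were dosed by pin tool the day after seeding, either with one drug alone or with a fixed anchor-drug dose plus five library-drug doses (not always all listed) in √10 steps. After 5 days, cells were fixed and their nuclei stained in one step (final 0.05% Triton X-100, 1% formaldehyde, 1 ug/ml Hoechst), then counted on 4× images. Relative viability is the nuclei count in treated wells divided by that in vehicle wells. Values are medians of duplicate plates.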

Selisistat + Pictilisib = compound: C1CC(C2=C(C1)C3=C(N2)C=CC(=C3)Cl)C(=O)N [Selisistat] + CS(=O)(=O)N1CCN(Cc2cc3nc(-c4cccc5[nH]ncc45)nc(N4CCOCC4)c3s2)CC1 [Pictilisib] (partner 1 µM)
In short: as §1

Selisistat + Olaparib = compound: C1CC(C2=C(C1)C3=C(N2)C=CC(=C3)Cl)C(=O)N [Selisistat] + O=C(c1cc(Cc2n[nH]c(=O)c3ccccc23)ccc1F)N1CCN(C(=O)C2CC2)CC1 [Olaparib] (partner 8 µM)
In short: as §1

Serdemetan + Dasatinib = compound: c1ccc2c(CCNc3ccc(Nc4ccncc4)cc3)c[nH]c2c1 [Serdemetan] + Cc1nc(Nc2ncc(C(=O)Nc3c(C)cccc3Cl)s2)cc(N2CCN(CCO)CC2)n1 [Dasatinib] (partner 0.075 µM)
In short: as §1

Cell Line | relative viability (Selisistat + Bortezomib; first compound 0.4 µM) | relative viability (Selisistat + Bortezomib; first compound 1.265 µM) | relative viability (Selisistat + Bortezomib; first compound 4 µM) | relative viability (Selisistat + Bortezomib; first compound 12.65 µM) | relative viability (Selisistat + Bortezomib; first compound 40 µM) | relative viability (Selisistat + Pictilisib; first compound 0.4 µM) | relative viability (Selisistat + Pictilisib; first compound 1.265 µM) | relative viability (Selisistat + Pictilisib; first compound 4 µM) | relative viability (Selisistat + Pictilisib; first compound 12.65 µM) | relative viability (Selisistat + Pictilisib; first compound 40 µM) | relative viability (Selisistat + Olaparib; first compound 0.4 µM) | relative viability (Selisistat + Olaparib; first compound 1.265 µM) | relative viability (Selisistat + Olaparib; first compound 4 µM) | relative viability (Selisistat + Olaparib; first compound 12.65 µM) | relative viability (Selisistat + Olaparib; first compound 40 µM) | relative viability (Serdemetan + Dasatinib; first compound 0.04 µM) | relative viability (Serdemetan + Dasatinib; first compound 0.1265 µM) | relative viability (Serdemetan + Dasatinib; first compound 0.4 µM) | relative viability (Serdemetan + Dasatinib; first compound 1.265 µM) | relative viability (Serdemetan + Dasatinib; first compound 4 µM)
NCI-H2009 | 1.01 | 1.06 | 0.583 | 0.921 | 0.997 | 0.928 | 0.827 | 0.323 | 0.609 | 0.795 | 0.763 | 0.683 | 0.838 | 0.743 | 0.672 | 0.315 | 0.326 | 0.31 | 0.25 | 0.221
NCI-H2023 | 0.978 | 0.961 | 0.849 | 0.95 | 0.928 | 0.25 | 0.265 | 0.201 | 0.255 | 0.222 | 0.555 | 0.443 | 0.523 | 0.413 | 0.435 | 0.521 | 0.674 | 0.532 | 0.43 | 0.233
NCI-H2085 | 1.07 | 1.14 | 0.95 | 1.17 | 1.02 | 0.524 | 0.406 | 0.454 | 0.575 | 0.467 | 0.818 | 0.771 | 0.766 | 0.824 | 0.855 | 0.242 | 0.222 | 0.278 | 0.269 | 0.166
NCI-H2087 | 0.738 | 0.709 | 0.734 | 0.806 | 0.719 | 0.977 | 0.911 | 0.321 | 0.873 | 0.841 | 0.748 | 0.684 | – | 0.573 | 0.553 | 0.979 | 0.712 | 0.763 | 0.418 | 0.27
NCI-H2126 | 1.2 | 1.15 | 1.12 | 1.12 | 1.17 | 0.525 | 0.496 | 0.398 | 0.526 | 0.584 | 0.981 | 0.922 | 0.904 | 0.921 | 0.934 | 0.643 | 0.665 | 0.517 | 0.467 | 0.557
NCI-H2228 | 1.01 | 1.01 | 0.971 | 0.923 | 1 | 0.476 | 0.398 | 0.343 | 0.551 | 0.557 | 0.637 | 0.656 | 0.523 | 0.741 | 0.702 | 0.44 | 0.473 | 0.485 | 0.188 | 0.184
NCI-H2347 | 0.772 | 1.11 | – | 0.907 | 0.831 | 0.374 | 0.714 | 0.294 | 0.541 | 0.56 | 0.719 | 0.622 | – | 0.605 | 0.621 | 0.336 | 0.305 | 0.286 | 0.303 | 0.237
NCI-H2405 | 0.985 | 0.932 | 0.854 | 0.997 | 0.88 | 0.431 | – | – | 0.441 | 0.431 | 0.899 | 0.909 | – | 0.769 | 0.882 | 0.173 | 0.217 | 0.21 | 0.209 | 0.133
NCI-H3122 | 1 | 1 | 0.837 | 1.1 | 0.995 | 0.558 | 0.606 | 0.262 | 0.608 | 0.704 | 0.661 | 0.661 | – | 0.556 | 0.649 | 0.827 | 0.792 | 0.919 | – | 0.782
